Calls of active or inactive are those of the source. The rule behind the calls is not given here.
Key:
[1] = Permeability of compound at pH 7.4 by PAMPA assay; assay type: ADME; details: read-out: permeability
[2] = biological target: Kynurenine 3-monooxygenase (Mus musculus, UniProt Q91WN4)
Description: Inhibition of mouse liver mitochondrial KMO by measuring the 3-HK metabolite formation using L-kynurenine as substrate preincubated for 5 mins followed by substate addition and measured after 30 mins by LC-MS/MS analysis

[3] = biological target: T1, Kynurenine 3-monooxygenase (Homo sapiens, UniProt O15229)
Target sequence in this assay (O15229 whole entry): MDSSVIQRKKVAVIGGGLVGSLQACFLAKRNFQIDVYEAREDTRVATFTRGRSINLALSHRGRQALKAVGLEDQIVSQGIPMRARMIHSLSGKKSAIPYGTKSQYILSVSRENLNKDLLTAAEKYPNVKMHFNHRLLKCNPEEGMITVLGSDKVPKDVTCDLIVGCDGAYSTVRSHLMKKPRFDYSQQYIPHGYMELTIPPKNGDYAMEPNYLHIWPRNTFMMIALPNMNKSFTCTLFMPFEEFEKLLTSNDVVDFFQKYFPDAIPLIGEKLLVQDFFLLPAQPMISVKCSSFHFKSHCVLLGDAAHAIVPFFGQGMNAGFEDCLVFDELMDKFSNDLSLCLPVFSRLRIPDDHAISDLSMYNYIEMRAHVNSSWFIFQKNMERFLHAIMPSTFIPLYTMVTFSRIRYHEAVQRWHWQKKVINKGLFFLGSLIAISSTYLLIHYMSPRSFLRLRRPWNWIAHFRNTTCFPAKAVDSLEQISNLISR
Description: Inhibition of KMO (unknown origin)

[4] = Plasma concentration in mouse at 10 mg/kg, po after 1 hr; assay type: ADME, organism-based
[5] = in vivo; details: mouse, brain/plasma, po, 10 mg/kg
Description: Ratio of drug level in brain to plasma of mouse at 10 mg/kg, po after 1 hr

[6] = biological target: T1, Kynurenine 3-monooxygenase; experiment: Inhibition of human liver mitochondrial KMO at by measuring the 3-HK metabolite formation at 100 nM using L-kynurenine as substrate preincubated for 5 mins followed by substate addition and measured after 30 mins by LC-MS/MS analysis relative to control; details: Mitochondria, time 35.0 min
Target sequence in this assay (O15229 whole entry, looked up): as the sequence (O15229 whole entry) above

[7] = Drug uptake in mouse brain at 10 mg/kg, po after 1 hr; assay type: ADME, organism-based; details: read-out: Drug uptake
[8] = biological target: Kynurenine 3-monooxygenase (Mus musculus) (UniProt Q91WN4); experiment: Inhibition of mouse liver mitochondrial KMO by measuring the 3-HK metabolite formation at 100 nM using L-kynurenine as substrate preincubated for 5 mins followed by substate addition and measured after 30 mins by LC-MS/MS analysis relative to control; details: Mitochondria, time 35.0 min
[9] = tested on: Mus musculus; experiment: Cognitive enhancing effect in R6/2 mouse model of HD assessed as increase in spontaneous alteration at 100 mg/kg, po administered twice daily for 12 weeks starting from 5 weeks of age by Y-maze test; assay type: functional, organism-based
[10] = tested on: Mus musculus; experiment: Effect on R6/2 mouse model of HD assessed as increase in latency to fall at 100 mg/kg, po administered twice daily for 11 weeks age starting from 5 weeks of age by rotarod test; assay type: functional, organism-based
[11] = tested on: Mus musculus; experiment: In vivo inhibition of KMO in R6/2 mouse model of HD assessed as decrease in 3-HK level in striatum at 100 mg/kg, po administered twice daily for 7 weeks starting from 5 weeks age; assay type: functional, organism-based

Kynurenine 3-monooxygenase (Mus musculus, UniProt Q91WN4), sequence (Q91WN4 whole entry): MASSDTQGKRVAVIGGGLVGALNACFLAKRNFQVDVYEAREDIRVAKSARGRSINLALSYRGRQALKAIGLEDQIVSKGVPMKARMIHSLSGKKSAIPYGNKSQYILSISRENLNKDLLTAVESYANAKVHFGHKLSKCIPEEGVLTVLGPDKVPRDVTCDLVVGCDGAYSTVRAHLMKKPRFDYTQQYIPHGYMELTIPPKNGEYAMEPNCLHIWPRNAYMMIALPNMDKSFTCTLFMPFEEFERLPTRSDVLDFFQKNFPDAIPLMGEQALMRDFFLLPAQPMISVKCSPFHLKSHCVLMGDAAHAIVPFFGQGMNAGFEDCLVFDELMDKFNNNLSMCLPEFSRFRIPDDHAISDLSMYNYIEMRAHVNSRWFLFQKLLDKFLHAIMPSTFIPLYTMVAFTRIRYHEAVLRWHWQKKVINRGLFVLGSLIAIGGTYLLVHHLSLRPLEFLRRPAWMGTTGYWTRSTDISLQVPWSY
Kynurenine 3-monooxygenase (Mus musculus), sequence (Q91WN4 whole entry, looked up): as the sequence (Q91WN4 whole entry) above

| Papp [1] | IC50 [2] | concentration at 1 h [4] | Kp at 1 h [5] | concentration at 1 h [7] | Compound | further results |
| --- | --- | --- | --- | --- | --- | --- |
| 22.4 ×10⁻⁶ cm/s | 47.2 nM |  |  |  | Cc1ccc(S(=O)(=O)Nc2ccc(-c3cccc4ccncc34)nn2)cc1 |  |
|  | 402 nM |  |  |  | CN(C)c1ccc(S(=O)(=O)Nc2ccc(-c3cccc(Cl)c3)nn2)cc1 |  |
| 35.7 ×10⁻⁶ cm/s | 4.5 nM | 185 ng/mL | 0.136 | 25 ng/g | Cc1ccc(S(=O)(=O)Nc2ccc(-c3ccccc3N(C)C)nn2)cc1 |  |
| 43.5 ×10⁻⁶ cm/s | 1.7 nM | 215 ng/mL | 0.235 | 51 ng/g | Cc1ccc(S(=O)(=O)Nc2ccc(-c3ccccc3N3CCCC3)nn2)cc1 |  |
| 40.2 ×10⁻⁶ cm/s | 101 nM |  |  |  | Cc1cccc(S(=O)(=O)Nc2ccc(-c3cccc(Cl)c3)nn2)c1 |  |
| 6.5 ×10⁻⁶ cm/s | 8.7 nM | 49100 ng/mL | 0.004 | 177 ng/g | O=C(O)c1cc(-c2ccc(Cl)c(OC3CC3)c2)ncn1 |  |

Further lines, the compound ahead of its results:

| Compound | Papp [1] | IC50 [2] | concentration at 1 h [4] | Kp at 1 h [5] | concentration at 1 h [7] | further results |
| --- | --- | --- | --- | --- | --- | --- |
| O=C(O)C1CC1C(=O)c1ccc(Cl)c(Cl)c1 (centres undefined) |  |  |  |  |  | IC50 [3]: 40 nM |
| CN(C)c1cccc(S(=O)(=O)Nc2ccc(-c3cccc(Cl)c3)nn2)c1 | 42.5 ×10⁻⁶ cm/s | 31.7 nM |  |  |  |  |
| Cc1ccc(S(=O)(=O)Nc2ccc(-c3cccc4cccnc34)nn2)cc1 | 44.1 ×10⁻⁶ cm/s | 8.7 nM | 27900 ng/mL | 0.104 | 2910 ng/g | inhibition [6]: 36% |
| CCc1ccccc1-c1ccc(NS(=O)(=O)c2ccc(C)cc2)nn1 |  | 29.2 nM |  |  |  |  |
| COc1ccccc1-c1ccc(NS(=O)(=O)c2ccc(C)cc2)nn1 | 34.7 ×10⁻⁶ cm/s | 36.5 nM | 2520 ng/mL | 0.052 | 131 ng/g |  |
| CN(C)c1ccccc1S(=O)(=O)Nc1ccc(-c2cccc(Cl)c2)nn1 | 35.7 ×10⁻⁶ cm/s | 118 nM |  |  |  |  |
| Cc1ccc(S(=O)(=O)Nc2ccc(-c3ccc(N(C)C)cc3)nn2)cc1 |  | 546 nM |  |  |  |  |
| CN(C)c1cccc(S(=O)(=O)Nc2ccc(-c3ccccc3N3CCCC3)nn2)c1 | 31.2 ×10⁻⁶ cm/s | 3.3 nM | 879 ng/mL | 0.162 | 137 ng/g |  |
| Cc1ccc(S(=O)(=O)Nc2ccc(-c3cccc4ccn(C)c34)nn2)cc1 | 49.2 ×10⁻⁶ cm/s | 29.1 nM |  |  |  |  |
| O=S(=O)(Nc1ccc(-c2cccc(Cl)c2)nn1)c1cccnc1 |  |  |  |  |  | inhibition [8]: 31% |
| Cc1ccc(S(=O)(=O)Nc2ccc(-c3cccc4c3N(C)CC4)nn2)cc1 | 38.5 ×10⁻⁶ cm/s | 16.9 nM |  |  |  |  |
| Cc1ccc(S(=O)(=O)Nc2ccc(-c3cccc(N(C)C)c3)nn2)cc1 | 32.4 ×10⁻⁶ cm/s | 82.5 nM |  |  |  |  |
| Cc1ccc(S(=O)(=O)Nc2ccc(-c3ccccc3N3CCCCC3)nn2)cc1 | 50.6 ×10⁻⁶ cm/s |  | 808 ng/mL | 0.282 | 230 ng/g | Activity [9]: Active; Activity [10]: Active; Activity [11]: Active |
| O=S(=O)(Nc1ccc(-c2cccc(Cl)c2)nn1)c1ccccn1 |  |  |  |  |  | inhibition [8]: 16% |
| Cc1ccc(S(=O)(=O)Nc2ccc(-c3ccccc3N3CCOCC3)nn2)cc1 | 44.3 ×10⁻⁶ cm/s | 3.9 nM | 931 ng/mL | 0.076 | 69 ng/g |  |
| Cc1ccc(S(=O)(=O)Nc2ccc(-c3ccccc3N3CCN(C)CC3)nn2)cc1 |  | > 100 nM |  |  |  |  |

From ChEMBL document CHEMBL4673377 (Bioorg Med Chem Lett, 2021)
